One may read the IC50 as the midpoint of a concentration-inhibition curve. The melting point is the temperature of the solid-liquid transition.

We go through eleven compounds from US8426419B2, “Tyrosine kinase inhibitors containing a zinc binding moiety” (Curis, Inc., priority 2006, dated 2013).

One series has as its system HDAC. Put plainly: HDAC fluorimetric assay kit (AK-500, Biomol), HeLa nuclear extract. It counts as biochemical. How it is done:
HDAC inhibitors is screened using an HDAC fluorimetric assay kit (AK-500, Biomol, Plymouth Meeting, Pa.).
Each assay is setup as follows: Defrost all kit components and kept on ice until use. […] Prepare dilutions of Trichostatin A (TSA, positive control) and tested compounds in assay buffer (5× of final concentration). Dilute Fluor de Lys™ Substrate in assay buffer to 100 uM (50 fold=2× final). Dilute Fluor de Lys™ developer concentrate 20-fold (e.g. 50 μl plus 950 μl Assay Buffer) in cold assay buffer. Second, dilute the 0.2 mM Trichostatin A 100-fold in the 1× Developer (e.g. 10 μl in 1 ml; final Trichostatin A concentration in the 1× Developer=2 μM; final concentration after addition to HDAC/Substrate reaction=1 μM). Add Assay buffer, dilute trichostatin A or test inhibitor to appropriate wells of the microtiter plate. Add diluted HeLa extract or other HDAC sample to all wells except for negative controls.

Series [1] deals with T1, human Abl1 (Pro118-Ser553) (Homo sapiens, UniProt P00519).
T1 construct: human Abl1 (Pro118-Ser553); GST (N); purchased Cell Signaling Technologies; host or cells: baculovirus expression system
T1 sequence (P00519 118-553): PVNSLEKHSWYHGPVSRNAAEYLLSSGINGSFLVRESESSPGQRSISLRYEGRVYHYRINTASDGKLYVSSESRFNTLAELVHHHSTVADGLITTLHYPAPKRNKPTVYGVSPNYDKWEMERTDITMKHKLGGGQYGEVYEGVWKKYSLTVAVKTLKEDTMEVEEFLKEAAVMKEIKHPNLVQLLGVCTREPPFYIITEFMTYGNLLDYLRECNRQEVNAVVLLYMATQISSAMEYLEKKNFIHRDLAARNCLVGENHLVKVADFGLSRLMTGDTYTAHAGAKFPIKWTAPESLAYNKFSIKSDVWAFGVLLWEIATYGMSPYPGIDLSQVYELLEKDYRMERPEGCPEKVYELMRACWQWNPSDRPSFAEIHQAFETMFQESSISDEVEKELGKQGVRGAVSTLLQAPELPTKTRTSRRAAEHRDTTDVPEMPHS
Description: HTScan tyrosine kinase assay, Abl1. The series is classed as biochemical. Conditions: read-out: ABL IC50. How it is done:
(§1) The proteins are purified by one-step affinity chromatography using glutathione-agarose. An anti-phosphotyrosine monoclonal antibody, P-Tyr-100, is used to detect phosphorylation of biotinylated substrate peptides (Abl1 and Src, Biotin-Signal Transduction Protein (Tyr160); c-Kit, Biotinylated-KDR (Tyr996); PDGFR-β, Biotinylated-FLT3 (Tyr589)). […] Data are plotted using GraphPad Prism (v4.0a) and IC50's are calculated using a sigmoidal dose response curve fitting algorithm.
(§2) Each assay is setup as follows: 100 μl of 10 mM ATP is added to 1.25 ml 6 mM substrate peptide. […] The enzyme is immediately transferred from −80° C. to ice. The enzyme is allowed to thaw on ice. […] 25 μl of 2× ATP/substrate cocktail is added to 25 μl/well preincubated reaction cocktail/compound. The reaction plate is incubated at room temperature for 30 minutes. […] 100 μl/well primary antibody is added and the mixture is incubated at room temperature for 60 minutes. The plates are again washed three times with 200 μl/well PBS/T. Europium labeled anti-mouse IgG is diluted 1:500 in PBS/T with 1% BSA. 100 μl/well diluted antibody is added and the mixture is incubated at room temperature for 30 minutes. The plate is washed five times with 200 μl/well PBS/T. 100 μl/well DELFIA® Enhancement Solution is added and the mixture is incubated at room temperature for 5 minutes. 615 nm fluorescence emission is detected using an appropriate Time-Resolved Plate Reader.

In series [2] the target is T2, full length human Src (Met1-Leu536) (Homo sapiens, UniProt P12931).
T2 construct: full length human Src (Met1-Leu536); GST (N); purchased Cell Signaling Technologies; host or cells: baculovirus expression system
Description: HTScan tyrosine kinase assay, Src. The series is classed as biochemical. The procedure: as §1, §2

In series [3] the target is T3, human PDGFR-beta (Arg561-Leu1106) (Homo sapiens, UniProt P09619).
T3 construct: fragment (Arg561-Leu1106); GST (N); His6 (N); thrombin cleavage site (N); purchased Cell Signaling Technologies; host or cells: baculovirus expression system
Put plainly: HTScan tyrosine kinase assay, PDGFR-beta. It counts as biochemical. Particulars: read-out: PDGFb IC50. How it is done:
as §1, §2

Series [4] has as its target T4, human c-Kit (Thr544-Val976) (Homo sapiens, UniProt P10721).
T4 construct: human c-Kit (Thr544-Val976); GST (N); purchased Cell Signaling Technologies; host or cells: baculovirus expression system
Description: HTScan tyrosine kinase assay, c-Kit. It counts as biochemical. The procedure:
as §1, §2

The next series addresses Lyn (Homo sapiens, UniProt P07948). Description: Lyn assay (Table B). The series is classed as biochemical.
A further series concerns the target Lck (Homo sapiens, UniProt P06239). Put plainly: Lck assay (Table B). It counts as biochemical.

T4 sequence (P10721 544-976): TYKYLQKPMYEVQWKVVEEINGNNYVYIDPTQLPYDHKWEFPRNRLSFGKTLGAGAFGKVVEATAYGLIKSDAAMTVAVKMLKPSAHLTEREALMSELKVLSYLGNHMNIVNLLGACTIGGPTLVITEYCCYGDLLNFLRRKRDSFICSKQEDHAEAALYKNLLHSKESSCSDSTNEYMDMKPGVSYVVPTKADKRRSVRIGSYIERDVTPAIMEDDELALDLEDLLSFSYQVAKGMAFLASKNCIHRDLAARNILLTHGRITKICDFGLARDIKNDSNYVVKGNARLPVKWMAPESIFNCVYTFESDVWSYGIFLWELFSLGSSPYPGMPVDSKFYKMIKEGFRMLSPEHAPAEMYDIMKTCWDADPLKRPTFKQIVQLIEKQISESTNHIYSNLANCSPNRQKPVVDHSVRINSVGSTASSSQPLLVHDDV
T3 sequence (P09619 561-1106): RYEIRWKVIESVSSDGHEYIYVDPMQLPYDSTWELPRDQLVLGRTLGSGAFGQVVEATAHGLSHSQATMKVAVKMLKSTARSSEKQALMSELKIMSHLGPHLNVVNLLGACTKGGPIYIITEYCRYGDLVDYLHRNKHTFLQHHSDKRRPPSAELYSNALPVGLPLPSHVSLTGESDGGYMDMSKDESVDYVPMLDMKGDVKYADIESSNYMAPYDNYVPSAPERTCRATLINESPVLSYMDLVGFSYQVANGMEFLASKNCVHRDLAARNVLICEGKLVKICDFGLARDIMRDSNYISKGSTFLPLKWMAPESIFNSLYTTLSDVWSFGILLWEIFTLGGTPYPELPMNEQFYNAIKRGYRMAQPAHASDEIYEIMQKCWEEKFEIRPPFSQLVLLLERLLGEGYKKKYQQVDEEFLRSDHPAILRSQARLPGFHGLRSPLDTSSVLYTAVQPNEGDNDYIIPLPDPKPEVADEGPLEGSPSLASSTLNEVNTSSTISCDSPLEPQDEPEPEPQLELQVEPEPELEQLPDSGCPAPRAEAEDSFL
Sequence of Lck (P06239 whole entry, species assumed): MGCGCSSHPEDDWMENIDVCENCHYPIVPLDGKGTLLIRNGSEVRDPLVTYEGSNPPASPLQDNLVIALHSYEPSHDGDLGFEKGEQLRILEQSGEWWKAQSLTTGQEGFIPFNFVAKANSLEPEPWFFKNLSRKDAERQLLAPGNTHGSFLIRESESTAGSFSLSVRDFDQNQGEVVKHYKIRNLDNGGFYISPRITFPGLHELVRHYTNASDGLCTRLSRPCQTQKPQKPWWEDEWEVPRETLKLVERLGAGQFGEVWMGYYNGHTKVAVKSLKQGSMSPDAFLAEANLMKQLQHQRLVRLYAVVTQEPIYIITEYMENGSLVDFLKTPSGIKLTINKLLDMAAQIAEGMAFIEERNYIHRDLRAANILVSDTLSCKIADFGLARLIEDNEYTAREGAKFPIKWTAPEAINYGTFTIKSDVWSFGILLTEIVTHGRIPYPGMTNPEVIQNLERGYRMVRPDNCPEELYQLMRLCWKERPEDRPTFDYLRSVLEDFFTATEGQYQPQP
T2 sequence (P12931 whole entry): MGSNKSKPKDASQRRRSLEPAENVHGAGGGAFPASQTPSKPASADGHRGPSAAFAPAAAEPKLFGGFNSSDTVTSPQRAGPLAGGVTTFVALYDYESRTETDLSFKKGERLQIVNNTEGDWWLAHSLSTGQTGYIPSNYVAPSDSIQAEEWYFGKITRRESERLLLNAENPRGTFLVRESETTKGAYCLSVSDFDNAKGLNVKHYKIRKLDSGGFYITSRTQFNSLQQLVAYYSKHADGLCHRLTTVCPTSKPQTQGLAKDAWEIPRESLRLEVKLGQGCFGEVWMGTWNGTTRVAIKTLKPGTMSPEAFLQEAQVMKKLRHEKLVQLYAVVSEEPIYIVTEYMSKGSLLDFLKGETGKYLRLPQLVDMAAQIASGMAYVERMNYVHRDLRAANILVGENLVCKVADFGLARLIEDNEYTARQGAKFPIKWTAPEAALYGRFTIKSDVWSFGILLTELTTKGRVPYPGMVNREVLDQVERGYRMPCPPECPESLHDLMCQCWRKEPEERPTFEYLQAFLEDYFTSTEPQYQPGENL
Sequence of Lyn (P07948 whole entry, species assumed): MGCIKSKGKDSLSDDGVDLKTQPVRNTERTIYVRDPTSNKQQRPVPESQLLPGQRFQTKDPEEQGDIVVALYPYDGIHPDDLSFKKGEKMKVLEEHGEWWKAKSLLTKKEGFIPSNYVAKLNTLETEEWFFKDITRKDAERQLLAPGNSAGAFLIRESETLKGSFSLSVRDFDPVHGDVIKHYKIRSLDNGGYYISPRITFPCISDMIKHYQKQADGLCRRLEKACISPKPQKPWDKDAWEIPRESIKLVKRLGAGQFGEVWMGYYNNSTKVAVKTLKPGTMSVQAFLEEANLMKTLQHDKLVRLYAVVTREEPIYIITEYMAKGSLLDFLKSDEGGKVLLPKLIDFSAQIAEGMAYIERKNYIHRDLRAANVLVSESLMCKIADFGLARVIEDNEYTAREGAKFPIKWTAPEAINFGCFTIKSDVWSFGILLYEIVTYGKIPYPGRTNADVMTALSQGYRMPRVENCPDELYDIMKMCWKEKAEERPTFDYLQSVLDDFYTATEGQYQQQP

`Cc1nc(Nc2ncc(C(=O)Nc3c(C)cccc3Cl)s2)cc(N2CCN(CCC(=O)NO)CC2)n1` [Compound 2, N-(2-Chloro-6-methylphenyl)-2-(6-(4-(3-(hydroxyamino)-3-oxopropyl)piperazin-1-yl)-2-methylpyrimidin-4-ylamino)thiazole-5-carboxamide]: the IC50 in the series with HDAC was 1 to 10 µM; in series [1], less than 0.1 µM; in series [2], less than 0.1 µM; in series [3] it was less than 0.1 µM.
With `Cc1nc(Nc2ncc(C(=O)Nc3c(C)cccc3Cl)s2)cc(N2CCN(CC(=O)NO)CC2)n1` [Compound 1, N-(2-chloro-6-methylphenyl)-2-(6-(4-(2-(hydroxyamino)-2-oxoethyl)piperazin-1-yl)-2-methylpyrimidin-4-ylamino)thiazole-5-carboxamide], the IC50 in the series on HDAC was 1 to 10 µM; in series [1], less than 0.1 µM; in series [2], less than 0.1 µM; in series [3], less than 0.1 µM.
On to `Cc1nc(Nc2ncc(C(=O)Nc3c(C)cccc3Cl)s2)cc(N2CCN(CCCCCC(=O)NO)CC2)n1` [Compound 5, N-(2-chloro-6-methylphenyl)-2-(6-(4-(6-(hydroxyamino)-6-oxohexyl)piperazin-1-yl)-2-methylpyrimidin-4-ylamino)thiazole-5-carboxamide], for which the half-maximal inhibitory concentration (IC50) (with HDAC; in series [1]; in series [2]; in series [4]; in series [3]; at Lyn) was less than 0.1 µM each time.
Turning to `Cc1nc(Nc2ncc(C(=O)Nc3c(C)cccc3Cl)s2)cc(N2CCN(CCCC(=O)NO)CC2)n1` [Compound 3, N-(2-chloro-6-methylphenyl)-2-(6-(4-(4-(hydroxyamino)-4-oxobutyl)piperazin-1-yl)-2-methylpyrimidin-4-ylamino)thiazole-5-carboxamide], the IC50 in the series on HDAC was 1 to 10 µM; in series [1] it was less than 0.1 µM; in series [2] it was less than 0.1 µM.
Take `Cc1nc(NCCNCC(=O)NO)cc(Nc2ncc(C(=O)Nc3c(C)cccc3Cl)s2)n1` [Compound 7, N-(2-chloro-6-methylphenyl)-2-(6-(2-(2-(hydroxyamino)-2-oxoethylamino)ethylamino)-2-methylpyrimidin-4-ylamino)thiazole-5-carboxamide]: the IC50 was greater than 10 µM with HDAC, less than 0.1 µM in series [1] and less than 0.1 µM in series [2].
`Cc1nc(NCCCCCC(=O)NO)cc(Nc2ncc(C(=O)Nc3c(C)cccc3Cl)s2)n1` [Compound 23, N-(2-chloro-6-methylphenyl)-2-(6-(6-(hydroxyamino)-6-oxohexylamino)-2-methylpyrimidin-4-ylamino)thiazole-5-carboxamide]: the half-inhibitory concentration (IC50) (in the series with HDAC; in series [1]; in series [2]; in series [4]; in series [3]; on Lyn) was less than 0.1 µM each time. For the same compound, at Lck, the IC50 is less than 0.1 µM.
For the compound `Cc1nc(N)cc(N(CC(=O)NO)c2ncc(C(=O)Nc3c(C)cccc3Cl)s2)n1` [Compound 30], the IC50 is greater than 10 µM in the series with HDAC, 0.1 to 1 µM in series [1] and 0.1 to 1 µM in series [2].
On to `Cc1nc(Nc2ncc(C(=O)Nc3c(C)cccc3Cl)s2)cc(N2CCN(CCCCCCC(=O)NO)CC2)n1` [Compound 6, N-(2-chloro-6-methylphenyl)-2-(6-(4-(7-(hydroxyamino)-7-oxoheptyl)piperazin-1-yl)-2-methylpyrimidin-4-ylamino)thiazole-5-carboxamide], for which the concentration for half-maximal inhibition (IC50) is 0.1 to 1 µM in the series with HDAC; less than 0.1 µM in series [1]; less than 0.1 µM in series [2]; less than 0.1 µM in series [4]; less than 0.1 µM in series [3]; less than 0.1 µM on Lyn.
As for `Cc1nc(NCCNCCCCCC(=O)NO)cc(Nc2ncc(C(=O)Nc3c(C)cccc3Cl)s2)n1` [Compound 11, N-(2-chloro-6-methylphenyl)-2-(6-(2-(6-(hydroxyamino)-6-oxohexylamino)ethylamino)-2-methylpyrimidin-4-ylamino)thiazole-5-carboxamide], the IC50 (with HDAC; in series [1]; in series [2]; in series [4]; in series [3]; at Lyn) was less than 0.1 µM each time. In addition, the concentration for half-maximal inhibition (IC50) against Lck is less than 0.1 µM.
Take `Cc1nc(NCCCCCCC(=O)NO)cc(Nc2ncc(C(=O)Nc3c(C)cccc3Cl)s2)n1` [Compound 24, N-(2-chloro-6-methylphenyl)-2-(6-(7-(hydroxyamino)-7-oxoheptylamino)-2-methylpyrimidin-4-ylamino)thiazole-5-carboxamide]: the melting point was 150.7 °C (dec.). Further, the IC50 in the series with HDAC is less than 0.1 µM. The IC50 in series [1] is less than 0.1 µM. In series [2], this compound came in with an IC50 of less than 0.1 µM. The compound also showed an IC50 in series [4] of less than 0.1 µM. Besides, in series [3], the IC50 was less than 0.1 µM. The compound further showed an IC50 at Lyn of less than 0.1 µM. Besides, at Lck, the half-maximal inhibitory concentration (IC50) was less than 0.1 µM.
For the compound `Cc1nc(Nc2ncc(C(=O)Nc3c(C)cccc3Cl)s2)cc(N2CCN(CCCCC(=O)NO)CC2)n1` [Compound 4, N-(2-chloro-6-methylphenyl)-2-(6-(4-(5-(hydroxyamino)-5-oxopentyl)piperazin-1-yl)-2-methylpyrimidin-4-ylamino)thiazole-5-carboxamide], the half-maximal inhibitory concentration (IC50) is 0.1 to 1 µM in the series with HDAC, less than 0.1 µM in series [1], less than 0.1 µM in series [2] and less than 0.1 µM in series [3].
